These results are taken from patent US6046289A, “Propenamide derivatives containing Arg-Gly-Asp polymers obtained therefrom” (priority 1990, dated 2000).

This assay concerns human plasma rich in platelet. The assay can be described thus: Platelet coagulation-inhibitory activity in vitro (aggregometer, ADP or collagen stimulation). The format is cell-based. The method, then: The platelet coagulation-inhibitory effect of the compounds of the present invention was assayed, in vitro, using human plasma rich in platelet. The experimental method will be described below.
To fresh human blood, there was added 1/9 volume of a 3.8% sodium citrate solution, the resulting mixture was centrifuged (1000 rpm; for 10 minutes) and the upper layer was separated as a plasma rich in platelet. The propenamide derivatives, the polymers thereof, the copolymers thereof or salts thereof obtained through lyophilization were dissolved in physiological saline to give a plurality of solutions having various concentrations ranging from 0 to 1.5 mg/ml. Each of the solutions (25 μl) was added to 200 μl of the plasma, incubated at 37° C. for 3 minutes, then a 50 μM of ADP (adenosine diphosphate) solution or a 200 μg/ml collagen solution was added to determine the extent of coagulation in terms of transmittance determined by an aggregometer.
Rate of Coagulation Inhibition=(1-T/T0)×100%
T0 : Transmittance observed when the propenamide derivatives, the polymers thereof, the copolymers thereof or salts thereof were not added.
T: Transmittance observed when the propenamide derivatives, the polymers thereof, the copolymers thereof or salts thereof were added.

For “trimethylammonioethyl methacrylamide [Preparation product 14]”, the “Platelet Coagulation-Inhibitory Activity IC50 ADP Stimulation” value (ADP Stimulation) was “C (more than 80)”. Moreover, where the note is “Collagen Stimulation”, the “Platelet Coagulation-Inhibitory Activity IC50 Collagen Stimulation” value is listed as “C (more than 80)”.
